# Data published in publication PMC7116837 (Nature microbiology, 2021).
# Assays:
# [1] = biological target: T1, VSGsur (Variant Surface Glycoprotein VSGsur) (Trypanosoma brucei, UniProt A0A291L8F4); assay: crystal structure; format: binding
# T1 sequence (A0A291L8F4 30-408): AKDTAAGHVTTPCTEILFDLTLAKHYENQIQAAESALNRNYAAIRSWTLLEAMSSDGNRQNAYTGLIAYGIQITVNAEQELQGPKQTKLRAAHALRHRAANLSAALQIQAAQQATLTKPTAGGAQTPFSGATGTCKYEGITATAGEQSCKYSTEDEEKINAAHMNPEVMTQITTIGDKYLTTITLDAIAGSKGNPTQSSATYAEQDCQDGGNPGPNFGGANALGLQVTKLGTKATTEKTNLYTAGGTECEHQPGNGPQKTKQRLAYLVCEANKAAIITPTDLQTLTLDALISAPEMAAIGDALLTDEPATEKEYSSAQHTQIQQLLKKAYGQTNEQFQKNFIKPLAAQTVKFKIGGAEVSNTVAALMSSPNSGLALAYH
# [2] = biological target: T2, VSGsur (Variant Surface Glycoprotein VSGsur) (Trypanosoma brucei, UniProt A0A291L8F4); assay: ITC and […] Å co-crystal structure; format: binding
# T2 sequence (A0A291L8F4 30-475): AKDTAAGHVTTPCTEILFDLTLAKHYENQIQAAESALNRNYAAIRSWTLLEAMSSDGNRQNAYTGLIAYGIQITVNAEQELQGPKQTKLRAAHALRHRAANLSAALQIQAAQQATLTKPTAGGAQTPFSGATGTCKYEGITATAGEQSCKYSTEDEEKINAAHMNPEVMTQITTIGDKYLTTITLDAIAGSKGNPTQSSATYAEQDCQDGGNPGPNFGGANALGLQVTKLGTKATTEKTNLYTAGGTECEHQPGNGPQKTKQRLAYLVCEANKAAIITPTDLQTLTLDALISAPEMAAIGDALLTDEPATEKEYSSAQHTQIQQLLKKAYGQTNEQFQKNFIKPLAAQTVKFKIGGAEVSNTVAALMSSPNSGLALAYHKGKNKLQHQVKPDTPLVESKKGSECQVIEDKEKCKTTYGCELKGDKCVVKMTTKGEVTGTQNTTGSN
# [3] = biological target: Variant Surface Glycoprotein VSG13, N-terminal domain (T. brucei brucei Lister 427); assay: crystal structure
# [4] = biological target: Variant Surface Glycoprotein VSGsur, N-terminal domain (T. brucei rhodesiense); assay: crystal structure
compound,measurement,setting,value
"Nc1c(I)c(C(=O)O)c(I)c(C(=O)O)c1I [I3C, 5-amino-2,4,6-triiodoisophthalic acid]","crystal structure (50 mM overnight soak, phasing compound)",[1],"occupies the same position as the suramin benzene groups, stacking similarly with H122"
Cc1ccc(C(=O)Nc2ccc(S(=O)(=O)O)c3cc(S(=O)(=O)O)cc(S(=O)(=O)O)c23)cc1NC(=O)c1cccc(NC(=O)Nc2cccc(C(=O)Nc3cc(C(=O)Nc4ccc(S(=O)(=O)O)c5cc(S(=O)(=O)O)cc(S(=O)(=O)O)c45)ccc3C)c2)c1 [suramin],Kd,[2],234 ± 28 nM
"Variant Surface Glycoprotein VSG13, N-terminal domain (domain or fragment)",stoichiometry N,[3],2
"Variant Surface Glycoprotein VSGsur, N-terminal domain (domain or fragment)",stoichiometry N,[4],2
